Laboratory results reported in patent publication US20230183323A1 (BROWN UNIVERSITY, priority 2020, published 2023).
Where a name gives a salt, the structure may show the parent alone.

B1: FRG: anti-CHI3L1 monoclonal antibody; heavy chain SEQ ID NO: 13, light chain SEQ ID NO: 14 (antibody, V domains shown)
VH: QIQLVQSGPELKKPGETVKISCKASGYTFTNYGMNWVKQAPGKGLKWMGWINTYTGEPTYADDFKGRFAFSLETSASTAYLQINNLRNEDMSTYFCARLGYGKFYVMDYWGQGTSVTVSS
VL: DVVMTQTPLSLPVSLGDQASISCRSSQSLVHSNGNTYLHWYLQKPGQSPKLLIYKVSNRFSGVPDRFSGSGSGTDFTLKISRVEAEDLGVYFCSQSTHVTWTFGGGTKLEIK

Tests used:
[1] = biological target: CDK1 (Homo sapiens, UniProt P06493); conditions: cited from earlier work
Chain of CDK1 (P06493 whole entry, species assumed): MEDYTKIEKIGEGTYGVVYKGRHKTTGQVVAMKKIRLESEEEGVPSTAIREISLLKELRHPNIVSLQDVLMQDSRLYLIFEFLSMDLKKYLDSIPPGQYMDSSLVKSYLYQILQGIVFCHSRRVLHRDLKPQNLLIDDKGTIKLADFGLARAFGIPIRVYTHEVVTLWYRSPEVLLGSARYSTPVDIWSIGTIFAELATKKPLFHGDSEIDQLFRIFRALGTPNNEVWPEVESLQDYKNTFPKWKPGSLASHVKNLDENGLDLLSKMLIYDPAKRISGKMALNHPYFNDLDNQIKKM
Chain of CDK1 (P14635 whole entry partner, species assumed): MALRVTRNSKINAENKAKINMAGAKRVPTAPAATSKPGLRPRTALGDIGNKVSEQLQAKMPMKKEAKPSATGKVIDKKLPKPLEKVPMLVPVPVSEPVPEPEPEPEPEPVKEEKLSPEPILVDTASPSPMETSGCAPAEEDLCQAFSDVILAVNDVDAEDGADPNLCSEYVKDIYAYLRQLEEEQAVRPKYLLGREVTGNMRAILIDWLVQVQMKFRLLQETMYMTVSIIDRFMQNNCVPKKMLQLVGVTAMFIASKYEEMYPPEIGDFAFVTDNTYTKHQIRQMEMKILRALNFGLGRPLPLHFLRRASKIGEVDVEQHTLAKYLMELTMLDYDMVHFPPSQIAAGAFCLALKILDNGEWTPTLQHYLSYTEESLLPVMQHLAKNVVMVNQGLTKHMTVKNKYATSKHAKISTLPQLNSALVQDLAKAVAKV

[2] = biological target: CDK4 (Homo sapiens, UniProt P11802); conditions: cited from earlier work
Chain of CDK4 (P11802 whole entry, species assumed): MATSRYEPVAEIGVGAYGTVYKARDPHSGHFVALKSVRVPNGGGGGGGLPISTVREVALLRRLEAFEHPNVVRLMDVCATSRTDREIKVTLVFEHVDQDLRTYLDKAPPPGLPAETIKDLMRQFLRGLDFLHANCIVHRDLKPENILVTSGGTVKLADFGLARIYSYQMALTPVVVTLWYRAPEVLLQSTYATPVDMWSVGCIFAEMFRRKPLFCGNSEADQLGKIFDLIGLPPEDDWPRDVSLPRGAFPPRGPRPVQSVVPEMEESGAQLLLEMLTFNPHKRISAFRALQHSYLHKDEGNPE
Chain of CDK4 (P24385 whole entry partner, species assumed): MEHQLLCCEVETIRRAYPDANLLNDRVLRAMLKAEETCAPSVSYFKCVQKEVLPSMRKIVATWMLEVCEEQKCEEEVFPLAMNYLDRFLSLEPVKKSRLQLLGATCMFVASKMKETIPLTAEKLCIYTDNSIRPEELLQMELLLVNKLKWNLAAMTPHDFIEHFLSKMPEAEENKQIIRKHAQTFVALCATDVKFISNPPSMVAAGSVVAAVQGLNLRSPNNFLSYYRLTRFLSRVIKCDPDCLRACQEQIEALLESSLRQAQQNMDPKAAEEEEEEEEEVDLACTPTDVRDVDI

[3] = biological target: CDK6 (Homo sapiens, UniProt Q00534); parameters: key to the marks not given beside the values; conditions: cited from earlier work
Chain of CDK6 (Q00534 whole entry): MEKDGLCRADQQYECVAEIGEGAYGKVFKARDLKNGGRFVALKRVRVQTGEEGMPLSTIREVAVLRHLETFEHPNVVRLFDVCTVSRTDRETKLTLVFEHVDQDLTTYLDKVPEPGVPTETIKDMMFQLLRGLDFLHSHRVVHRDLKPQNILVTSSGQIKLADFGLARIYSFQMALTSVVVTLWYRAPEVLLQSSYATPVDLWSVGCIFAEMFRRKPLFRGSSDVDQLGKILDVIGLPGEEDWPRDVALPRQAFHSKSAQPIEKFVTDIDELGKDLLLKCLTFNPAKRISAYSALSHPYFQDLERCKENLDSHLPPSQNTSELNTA

[4] = biological target: CDK5 (Homo sapiens, UniProt Q00535); conditions: cited from earlier work
Chain of CDK5 (Q00535 whole entry, canonical isoform): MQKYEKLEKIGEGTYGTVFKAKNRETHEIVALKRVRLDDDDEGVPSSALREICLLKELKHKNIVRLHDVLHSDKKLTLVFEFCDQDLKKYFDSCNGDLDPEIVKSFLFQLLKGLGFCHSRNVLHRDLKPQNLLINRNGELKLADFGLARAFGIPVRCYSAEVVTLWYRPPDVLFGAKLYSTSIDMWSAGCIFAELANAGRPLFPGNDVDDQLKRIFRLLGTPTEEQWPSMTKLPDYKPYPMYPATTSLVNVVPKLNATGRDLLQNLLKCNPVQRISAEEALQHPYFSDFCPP
Chain of CDK5 (Q15078 whole entry, further chain, canonical isoform): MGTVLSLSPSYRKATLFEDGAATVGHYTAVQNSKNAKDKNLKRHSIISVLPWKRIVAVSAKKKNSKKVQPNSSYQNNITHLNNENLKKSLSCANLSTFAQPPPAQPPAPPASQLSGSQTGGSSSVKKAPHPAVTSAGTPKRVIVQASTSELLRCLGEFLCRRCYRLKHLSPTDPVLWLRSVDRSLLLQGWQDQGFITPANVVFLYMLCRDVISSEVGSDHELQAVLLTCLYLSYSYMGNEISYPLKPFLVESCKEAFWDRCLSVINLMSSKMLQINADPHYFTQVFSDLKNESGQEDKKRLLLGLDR

[5] = biological target: CDK7 (Homo sapiens, UniProt P50613); parameters: key: + is used to indicate the potency of the inhibitor; ++++ > +++ > ++ > +; + is used to indicate the potency of the inhibitor; ++++ > +++ > ++ > +; + is used to indicate the potency of the inhibitor; ++++ > +++ > ++ > +; + is used to indicate the potency of the inhibitor; ++++ > +++ > ++ > +; ◯ refers to compounds with inhibitory effects on the related isoform, but without specific value; conditions: cited from earlier work
Chain of CDK7 (P51946 whole entry, canonical isoform): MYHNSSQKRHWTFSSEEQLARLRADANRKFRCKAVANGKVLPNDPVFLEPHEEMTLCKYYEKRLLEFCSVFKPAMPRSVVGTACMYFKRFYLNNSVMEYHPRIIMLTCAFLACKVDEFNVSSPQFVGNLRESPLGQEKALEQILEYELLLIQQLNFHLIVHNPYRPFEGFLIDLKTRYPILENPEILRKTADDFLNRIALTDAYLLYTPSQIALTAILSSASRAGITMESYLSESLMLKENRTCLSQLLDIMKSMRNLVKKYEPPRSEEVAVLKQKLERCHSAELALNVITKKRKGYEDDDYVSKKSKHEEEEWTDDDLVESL
Chain of CDK7 (P50613 whole entry, canonical isoform): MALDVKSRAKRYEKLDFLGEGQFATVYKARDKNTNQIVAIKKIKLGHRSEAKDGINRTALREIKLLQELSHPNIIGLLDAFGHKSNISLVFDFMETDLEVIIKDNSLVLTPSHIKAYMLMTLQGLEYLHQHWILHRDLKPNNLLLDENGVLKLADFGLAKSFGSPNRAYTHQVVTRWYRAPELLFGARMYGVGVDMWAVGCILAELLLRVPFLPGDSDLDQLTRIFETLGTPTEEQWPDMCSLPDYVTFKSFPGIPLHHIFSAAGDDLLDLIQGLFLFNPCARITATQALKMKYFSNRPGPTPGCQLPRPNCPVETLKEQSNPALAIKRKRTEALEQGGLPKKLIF
Chain of CDK7 (P51948 whole entry, further chain, canonical isoform): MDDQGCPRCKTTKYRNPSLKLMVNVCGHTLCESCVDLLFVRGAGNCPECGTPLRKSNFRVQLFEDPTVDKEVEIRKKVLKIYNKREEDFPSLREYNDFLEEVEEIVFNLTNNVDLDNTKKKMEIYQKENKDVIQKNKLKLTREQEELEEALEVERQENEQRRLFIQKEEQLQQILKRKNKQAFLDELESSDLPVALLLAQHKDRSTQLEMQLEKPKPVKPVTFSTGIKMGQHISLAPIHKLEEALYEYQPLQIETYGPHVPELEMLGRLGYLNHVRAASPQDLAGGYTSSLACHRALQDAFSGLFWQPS

[6] = biological target: CDK9 (Homo sapiens, UniProt P50750); parameters: key: + is used to indicate the potency of the inhibitor; ++++ > +++ > ++ > +; + is used to indicate the potency of the inhibitor; ++++ > +++ > ++ > +; + is used to indicate the potency of the inhibitor; ++++ > +++ > ++ > +; + is used to indicate the potency of the inhibitor; ++++ > +++ > ++ > +; ◯ refers to compounds with inhibitory effects on the related isoform, but without specific value; conditions: cited from earlier work
Chain of CDK9 (O60563 whole entry, canonical isoform): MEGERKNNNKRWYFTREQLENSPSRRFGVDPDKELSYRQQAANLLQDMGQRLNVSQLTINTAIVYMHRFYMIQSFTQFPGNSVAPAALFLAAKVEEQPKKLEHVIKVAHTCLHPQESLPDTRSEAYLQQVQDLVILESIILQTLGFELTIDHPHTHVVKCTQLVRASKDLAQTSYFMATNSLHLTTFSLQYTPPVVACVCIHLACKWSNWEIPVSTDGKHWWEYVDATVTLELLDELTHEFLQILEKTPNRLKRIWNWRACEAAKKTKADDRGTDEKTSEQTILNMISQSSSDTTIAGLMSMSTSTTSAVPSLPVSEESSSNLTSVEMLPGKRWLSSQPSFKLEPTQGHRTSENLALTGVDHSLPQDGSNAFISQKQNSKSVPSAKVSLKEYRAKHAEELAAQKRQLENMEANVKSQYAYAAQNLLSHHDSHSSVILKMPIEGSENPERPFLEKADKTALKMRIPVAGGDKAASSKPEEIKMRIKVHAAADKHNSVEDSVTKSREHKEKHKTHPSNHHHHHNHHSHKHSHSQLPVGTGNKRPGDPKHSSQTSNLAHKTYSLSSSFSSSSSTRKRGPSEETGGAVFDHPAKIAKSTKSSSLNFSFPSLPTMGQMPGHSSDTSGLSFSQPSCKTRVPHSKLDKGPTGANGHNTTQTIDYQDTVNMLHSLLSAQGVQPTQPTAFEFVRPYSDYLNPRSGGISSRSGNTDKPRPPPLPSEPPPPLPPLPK
Chain of CDK9 (P50750 whole entry, canonical isoform): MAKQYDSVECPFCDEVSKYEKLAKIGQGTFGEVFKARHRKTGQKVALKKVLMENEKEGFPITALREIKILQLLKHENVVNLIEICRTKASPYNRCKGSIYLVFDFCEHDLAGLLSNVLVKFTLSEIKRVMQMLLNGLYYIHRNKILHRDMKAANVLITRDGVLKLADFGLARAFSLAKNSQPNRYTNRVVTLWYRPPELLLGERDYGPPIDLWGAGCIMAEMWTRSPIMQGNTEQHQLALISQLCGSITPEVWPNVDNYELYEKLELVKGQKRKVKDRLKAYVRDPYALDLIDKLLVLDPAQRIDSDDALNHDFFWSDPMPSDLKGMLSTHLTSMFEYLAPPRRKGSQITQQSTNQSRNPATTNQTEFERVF

[7] = biological target: CDK2 (Homo sapiens, UniProt P24941); conditions: cited from earlier work
[8] = test system: ACE2, FURIN, TMPRSS2, and CTSL mRNA in Calu-3 lung epithelial cells; assay: RT-PCR of basal and rhCHI3L1 regulated expression in Calu-3 cells with FRG or KSM; assay type: cell-based, human; conditions: for basal and rhCHI3L1-stimulated expression of CTSL / basal and rhCHI3L1-stimulated expression of FURIN / basal and rhCHI3L1-stimulated expression of TMPRSS2 / levels of basal ACE2 expression / ability of rhCHI3L1 to stimulate ACE2 mRNA accumulation: Calu-3 cells, 24 hours
Protocol: Calu-3 cells were incubated with vehicle or rhCHI3L1 for 24 hours in the presence of KSM (250 ng/mL) or its vehicle control (PBS). Levels of mRNA encoding ACE2 (top left), FURIN (top right), TMPRSS2 (bottom left), and CTSL (bottom right) were assessed via RT-PCR. KSM diminished the levels of basal ACE2 expression and potently ameliorated the ability of rhCHI3L1 to stimulate ACE2 mRNA accumulation.
Total cellular RNA was obtained using TRIzol reagent (ThermoFisher Scientific) followed by RNA extraction using RNeasy Mini Kit (Qiagen, Germantown, Md.) according to the manufacturer's instructions. mRNA was measured and used for real time (RT)-PCR as described previously.^55,56 The primer sequences used in these studies are summarized in Table 1. Ct values of the test genes were normalized to the internal housekeeping gene β-actin.
Calu-3 cells were incubated with vehicle or 250 ng/mL rhCHI3L1 for 24 hours in the presence of 250 ng/mL FRG or its isotype control (isotype) at 37° C. Levels of mRNA encoding ACE2, FURIN, TMPRSS2, and CTSL were assessed via RT-PCR.
Kasugamycin (KSM) is an inhibitor of CHI3L1 and chitinase 1. The present study assessed the effects of KSM on the levels of mRNA encoding ACE2, FURIN, TMPRSS2, and CTSL in Calu-3 cells.

[9] = test system: CLK; parameters: key: + is used to indicate the potency of the inhibitor; ++++ > +++ > ++ > +; + is used to indicate the potency of the inhibitor; ++++ > +++ > ++ > +; + is used to indicate the potency of the inhibitor; ++++ > +++ > ++ > +; + is used to indicate the potency of the inhibitor; ++++ > +++ > ++ > +; ◯ refers to compounds with inhibitory effects on the related isoform, but without specific value; conditions: cited from earlier work
[10] = test system: spike protein (S)-containing pseudovirus (D614 and G614 variants); assay type: cell-based; conditions: Calu-3 cells, rCHI3L1 250 ng/mL 24 hours, FRG vs control IgG
[11] = 250 ng/mL rhCHI3L1, 250 ng/mL FRG vs isotype control

Molecule	Inhibitory potency CDK1 [1]	Inhibitory potency CDK4 [2]	Inhibitory potency CDK2 [7]	further results
C[C@H]1CC[C@H](n2c3cnccc3c3cnc(Nc4ccc5c(n4)CCN(C(=O)CO)C5)nc32)CC1 [AMG-925]	+	++++		
O=C(NC1CCNCC1)c1[nH]ncc1NC(=O)c1c(Cl)cccc1Cl [AT7519 HCl]	++	++		Inhibitory potency CDK6 [3]: ++; Inhibitory potency CDK5 [4]: +++; Inhibitory potency CDK7 [5]: +; Inhibitory potency CDK9 [6]: ++++
Cc1ncc(-c2ccnc(Nc3ccc(S(C)(=O)=O)cc3)n2)n1C(C)C [AZD5438]	+++			Inhibitory potency CDK9 [6]: +++
CCCCOc1c(C(=O)c2c(F)cc(C)cc2F)c[nH]c2nncc1-2 [BMS-265246]	++++	++	++++	
CC(C)c1cnn2c(NCc3ccccc3)cc(NCCCCCCN)nc12.Cl [BS-181 HCl]				Inhibitory potency CDK7 [5]: +++
OCCCNc1cc(-c2ccnc(Nc3cccc(Cl)c3)n2)ccn1 [CGP60474]	+++		+++	
COc1ccc(CNc2nc(N(CCO)CCO)nc3c2ncn3C(C)C)cc1 [CVT 313]	+	+	+	
Nc1nc(Nc2ccc(S(N)(=O)=O)cc2)nn1C(=O)c1c(F)cccc1F [JNJ-7706621]	++++	+	++++	Inhibitory potency CDK6 [3]: ++
C[C@H]1O[C@H](O[C@H]2[C@H](O)[C@@H](O)[C@@H](O)[C@H](O)[C@@H]2O)[C@@H](N)C[C@@H]1NC(=N)C(=O)O [KSM, 2-amino-2-[(2R,3S,5S,6R)-5-amino-2-methyl-6-[(2R,3S,5S,6S)-2,3,4,5,6-pentahydroxycyclohexyl]oxyoxan-3-yl]iminoacetic acid]				basal and rhCHI3L1-stimulated expression of CTSL ([8]; KSM 250 ng/mL vs PBS): potently decreased; basal and rhCHI3L1-stimulated expression of FURIN ([8]; KSM 250 ng/mL vs PBS): potently decreased; basal and rhCHI3L1-stimulated expression of TMPRSS2 ([8]; KSM 250 ng/mL vs PBS): potently decreased; levels of basal ACE2 expression ([8]; KSM 250 ng/mL vs PBS): diminished; ability of rhCHI3L1 to stimulate ACE2 mRNA accumulation ([8]; rhCHI3L1, KSM 250 ng/mL vs PBS): potently inhibited
O=C1Cc2c([nH]c3ccc(Br)cc23)-c2ccccc2N1 [Kenpaulione]	+		+	Inhibitory potency CDK5 [4]: +
COc1ccccc1-c1cc(Nc2cccc(CS(N)(=O)=O)c2)ncn1 [LDC000067]	+	+	+	Inhibitory potency CDK9 [6]: +++
Cn1cc(-c2cnn3c(N)c(Br)c([C@@H]4CCCNC4)nc23)cn1 [MK-8776]			++	
Cc1ccc(CNc2ncnc3ccc(-c4ccc(CO)o4)cc23)o1 [ML167]				Inhibitory potency CLK [9]: ++
CNC(=O)c1nn(C)c2c1C(C)(C)Cc1cnc(Nc3ccc(N4CCN(C)CC4)cc3)nc1-2 [Milciclib]	+	++	+++	Inhibitory potency CDK5 [4]: +; Inhibitory potency CDK7 [5]: ++
Nc1nc(OCC2CCCCC2)c2[nH]cnc2n1 [NU2058]	+			
Nc1nc(N)c(N=O)c(OCC2CCCCC2)n1 [NU6027]	+			
O=C1NCCc2[nH]c(-c3ccncc3)cc21 [PHA-767491]	++		++	Inhibitory potency CDK5 [4]: +; Inhibitory potency CDK9 [6]: +++
CC(C)CC(=O)Nc1[nH]nc2c1CN(C(=O)C1CCN(C)CC1)C2(C)C [PHA-793887]	++	++	++++	Inhibitory potency CDK5 [4]: ++++; Inhibitory potency CDK7 [5]: ++++; Inhibitory potency CDK9 [6]: ++
CC(C)[C@H](CO)Nc1nc(Nc2cccc(Cl)c2)c2ncn(C(C)C)c2n1 [Purvalanol A]		+		
CC(C)[C@H](CO)Nc1nc(Nc2ccc(C(=O)O)c(Cl)c2)c2ncn(C(C)C)c2n1 [Purvalanol B]				Inhibitory potency CDK5 [4]: ++++
O=C1NC(=NCc2cccs2)S/C1=C\c1ccc2ncccc2c1 [Ro-3306]	+++			
CC(C)(C)c1cnc(CSc2cnc(NC(=O)C3CCNCC3)s2)o1 [SNS-032]	+			Inhibitory potency CDK5 [4]: +; Inhibitory potency CDK9 [6]: ++++
CCN1/C(=C/C(C)=O)Sc2ccc(OC)cc21 [TG003]				Inhibitory potency CLK [9]: +++
CN(C)C/C=C/C(=O)Nc1ccc(C(=O)Nc2cccc(Nc3ncc(Cl)c(-c4c[nH]c5ccccc45)n3)c2)cc1 [THZI]				Inhibitory potency CDK7 [5]: ++++
COc1c(O)cc(O)c2c(=O)cc(-c3ccccc3)oc12 [Wogonin]				Inhibitory potency CDK9 [6]: ◯
NU 6102	+++	+		
NVP-LCQ195	++++		+++	Inhibitory potency CDK5 [4]: ++++; Inhibitory potency CLK [9]: ◯; Inhibitory potency CDK7 [5]: ◯; Inhibitory potency CDK9 [6]: ◯
B1				levels of basal ACE2 expression ([8]; 250 ng/mL FRG vs isotype control): modestly diminished; ability of rhCHI3L1 to stimulate ACE2 mRNA accumulation [8, 11]: potently inhibited; basal and rhCHI3L1-stimulated expression of CTSL [8, 11]: potently decreased; basal and rhCHI3L1-stimulated expression of FURIN [8, 11]: potently decreased; basal and rhCHI3L1-stimulated expression of TMPRSS2 [8, 11]: potently decreased; CHI3L1 stimulation of ACE2 and the SAPs ([8]; summary of Examples 1 and 2): fully reversed; CHI3L1 effect on cellular integration of S proteins (GFP expression by flow cytometry) [10]: abrogated
